Like-named read-outs stand apart in the source and are kept apart here.
Experiments:
human COX-II = molecular target: T1, human COX-II (Homo sapiens, UniProt P35354); test: COX II activity in vitro, human (PGE2 by ELISA)
T1 sequence (P35354 18-604): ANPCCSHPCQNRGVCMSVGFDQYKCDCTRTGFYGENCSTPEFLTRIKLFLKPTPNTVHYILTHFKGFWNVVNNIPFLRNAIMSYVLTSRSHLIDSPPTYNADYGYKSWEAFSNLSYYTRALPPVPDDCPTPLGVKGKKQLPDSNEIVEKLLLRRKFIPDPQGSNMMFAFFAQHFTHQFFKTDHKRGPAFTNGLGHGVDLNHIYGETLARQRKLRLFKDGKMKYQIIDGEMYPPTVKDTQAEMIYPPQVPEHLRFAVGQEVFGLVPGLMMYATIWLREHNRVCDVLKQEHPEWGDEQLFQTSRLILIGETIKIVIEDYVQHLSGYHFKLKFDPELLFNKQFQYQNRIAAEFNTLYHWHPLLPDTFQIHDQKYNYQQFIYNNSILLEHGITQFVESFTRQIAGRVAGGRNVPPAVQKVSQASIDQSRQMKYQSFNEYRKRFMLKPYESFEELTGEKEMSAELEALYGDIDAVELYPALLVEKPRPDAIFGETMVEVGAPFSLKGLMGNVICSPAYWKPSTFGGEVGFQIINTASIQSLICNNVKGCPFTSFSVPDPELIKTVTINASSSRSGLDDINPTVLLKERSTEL

murine COX-I = molecular target: T2, murine COX-I (Mus musculus, UniProt P22437); test: COX I activity in vitro, murine (PGE2 by ELISA)
T2 sequence (P22437 27-602): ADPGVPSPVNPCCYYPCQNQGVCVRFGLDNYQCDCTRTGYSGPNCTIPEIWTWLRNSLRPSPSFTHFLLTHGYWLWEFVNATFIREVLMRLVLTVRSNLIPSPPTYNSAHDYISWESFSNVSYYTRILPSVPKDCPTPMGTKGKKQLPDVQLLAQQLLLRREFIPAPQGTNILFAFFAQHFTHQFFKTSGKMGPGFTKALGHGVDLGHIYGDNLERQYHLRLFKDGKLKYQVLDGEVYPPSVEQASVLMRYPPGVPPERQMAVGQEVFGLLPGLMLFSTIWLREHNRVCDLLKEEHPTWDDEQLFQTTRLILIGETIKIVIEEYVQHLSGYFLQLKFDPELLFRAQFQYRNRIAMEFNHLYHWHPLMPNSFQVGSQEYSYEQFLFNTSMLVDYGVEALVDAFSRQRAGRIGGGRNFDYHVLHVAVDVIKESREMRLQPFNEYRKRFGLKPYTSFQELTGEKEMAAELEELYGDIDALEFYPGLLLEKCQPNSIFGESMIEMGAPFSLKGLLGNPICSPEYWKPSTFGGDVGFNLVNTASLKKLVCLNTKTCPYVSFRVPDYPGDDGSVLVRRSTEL

human COX-I = human COX-I (Homo sapiens, UniProt P23219); test: COX I activity in vitro, human (PGE2 by ELISA)
murine COX-II = molecular target: T3, murine COX-II (Mus musculus, UniProt Q05769); test: biochemical
T3 sequence (Q05769 18-604): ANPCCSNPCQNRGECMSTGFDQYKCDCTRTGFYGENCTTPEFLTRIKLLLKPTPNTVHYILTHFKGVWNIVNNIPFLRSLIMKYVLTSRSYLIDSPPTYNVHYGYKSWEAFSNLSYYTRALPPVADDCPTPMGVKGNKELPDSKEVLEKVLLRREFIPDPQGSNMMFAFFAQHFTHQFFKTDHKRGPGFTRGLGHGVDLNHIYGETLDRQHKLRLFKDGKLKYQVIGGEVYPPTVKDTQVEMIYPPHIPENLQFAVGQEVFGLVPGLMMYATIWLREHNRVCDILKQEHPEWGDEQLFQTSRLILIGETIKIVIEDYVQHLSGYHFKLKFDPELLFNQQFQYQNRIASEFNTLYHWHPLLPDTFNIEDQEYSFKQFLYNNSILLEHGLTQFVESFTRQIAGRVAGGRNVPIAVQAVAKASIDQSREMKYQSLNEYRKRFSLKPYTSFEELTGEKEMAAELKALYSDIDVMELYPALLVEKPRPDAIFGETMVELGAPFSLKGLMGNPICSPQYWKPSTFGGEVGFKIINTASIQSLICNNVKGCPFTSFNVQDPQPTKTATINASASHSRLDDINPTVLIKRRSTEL

carrageenan foot edema = test: Rat Carrageenan Foot Pad Edema Test; type: in vivo, rat (Male Sprague-Dawley); settings: oral, 3 hours after carrageenan, read-out: RAT PAW EDEMA % Inhibition; for inhibition at 20 mg/kg: @ 20 mg/kg body weight
Experimental: Male Sprague-Dawley rats were selected in each group so that the average body weight was as close as possible. Rats were fasted with free access to water for over sixteen hours prior to the test. […] One hour later a subplantar injection of 0.1 mL of 1% solution of carrageenan/sterile 0.9% saline was administered and the volume of the injected foot was measured with a displacement plethysmometer connected to a pressure transducer with a digital indicator. Three hours after the injection of the carrageenan, the volume of the foot was again measured. […] Rat Carrageenan-induced Analgesia Test

human COX-I, sequence (P23219 24-599): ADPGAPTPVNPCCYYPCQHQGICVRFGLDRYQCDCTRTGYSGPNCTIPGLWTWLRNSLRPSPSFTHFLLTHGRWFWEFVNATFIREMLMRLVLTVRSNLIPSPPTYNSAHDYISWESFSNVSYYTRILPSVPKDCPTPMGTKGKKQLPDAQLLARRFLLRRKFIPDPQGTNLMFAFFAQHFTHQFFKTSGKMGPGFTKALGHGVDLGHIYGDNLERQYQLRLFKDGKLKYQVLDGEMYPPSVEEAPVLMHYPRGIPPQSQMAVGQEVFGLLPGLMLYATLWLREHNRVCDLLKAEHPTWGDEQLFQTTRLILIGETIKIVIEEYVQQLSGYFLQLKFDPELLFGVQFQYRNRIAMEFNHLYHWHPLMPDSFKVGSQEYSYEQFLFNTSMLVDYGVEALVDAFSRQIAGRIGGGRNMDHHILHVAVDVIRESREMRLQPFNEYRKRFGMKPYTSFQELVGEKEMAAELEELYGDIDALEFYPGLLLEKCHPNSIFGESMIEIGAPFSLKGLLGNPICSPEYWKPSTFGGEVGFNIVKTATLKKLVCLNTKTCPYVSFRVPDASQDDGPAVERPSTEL

Structure (SMILES) | IC50 (human COX-II) [µM] | IC50 (murine COX-I) [µM] | IC50 (human COX-I) [µM] | IC50 (murine COX-II) [µM] | IC50 (human COX-I; read-out: COX I ID50, human (h), 10 μM arachidonic acid) [µM] | inhibition at 20 mg/kg (carrageenan foot edema) [%] | inhibition at 10 mg/kg (carrageenan foot edema) [%]
CS(=O)(=O)c1ccc(-c2sc(COc3ccc(Cl)cc3)nc2-c2ccc(F)cc2)cc1 [Example 1, 2-((4-Chlorophenoxy)methyl)-4-(4-fluorophenyl)-5-(4-methylsulfonylphenyl)thiazole] | < 0.1 | > 100 | > 10 |  |  |  | 
CS(=O)(=O)c1ccc(-c2sc(-c3ccccc3Cl)nc2-c2ccccc2)cc1 [Example 2, 2-(2-Chlorophenyl)-4-phenyl-5-(4-methylsulfonylphenyl)thiazole] | < 0.1 |  |  |  |  |  | 
CS(=O)(=O)c1ccc(-c2sc(-c3ccccc3Cl)nc2-c2cccc(F)c2)cc1 [Example 3, 2-(2-Chlorophenyl)-4-(3-fluorophenyl)-5-(4-methylsulfonylphenyl)thiazole] | < 0.1 |  |  |  |  |  | 
CS(=O)(=O)c1ccc(-c2sc(-c3ccccc3Cl)nc2-c2ccc(F)cc2F)cc1 [Example 4, 4-(2,4-Difluorophenyl)-2-(2-chlorophenyl)-5-(4-methylsulfonylphenyl)thiazole] | < 0.1 | 6.2 |  | < 0.1 | 70 |  | 
Cc1ccccc1-c1nc(-c2ccccc2Cl)sc1-c1ccc(S(C)(=O)=O)cc1 [Example 5, 2-(2-Chlorophenyl)-4-(2-methylphenyl)-5-(4-methylsulfonylphenyl)thiazole] | < 0.1 |  | > 100 |  |  |  | 
CS(=O)(=O)c1ccc(-c2sc(-c3ccccc3Cl)nc2-c2ccccc2Cl)cc1 [Example 9, 2-(2-Chlorophenyl)-4-(2-chlorophenyl)-5-(4-methylsulfonylphenyl)thiazole] | < 0.1 |  | > 100 |  |  |  | 
CS(=O)(=O)c1ccc(-c2sc(-c3ccccc3Cl)nc2-c2ccc(Cl)cc2)cc1 [Example 10, 2-(2-Chlorophenyl)-4-(4-chlorophenyl)-5-(4-methylsulfonylphenyl)thiazole] | < 0.1 |  | > 100 |  |  | 14 | 
COc1ccc(-c2nc(-c3ccccc3Cl)sc2-c2ccc(S(C)(=O)=O)cc2)cc1 [Example 11, 2-(2-Chlorophenyl)-4-(4-methoxyphenyl)-5-(4-methylsulfonylphenyl)thiazole] | < 0.1 |  | > 100 |  |  |  | 
CS(=O)(=O)c1ccc(-c2sc(-c3ccc(F)c(Cl)c3)nc2-c2ccc(F)cc2)cc1 [Example 12, 2-(3-Chloro-4-fluorophenyl)-4-(4-fluorophenyl)-5-(4-methylsulfonylphenyl)thiazole] | < 0.1 | 1.6 | > 10 | < 0.1 |  | 53 | 
CS(=O)(=O)c1ccc(-c2sc(C(Br)S(=O)(=O)c3cccs3)nc2-c2ccc(F)cc2)cc1 (stereo not shown) [Example 14] | 0.6 | 39.8 | > 100 | 0.5 |  |  | 
Cc1ccc(-c2nc(-c3ccccc3Cl)sc2-c2ccc(S(C)(=O)=O)cc2)cc1 [Example 15, 2-(2-Chlorophenyl)-5-(4-methylsulfonylphenyl)-4-(4-methylphenyl)thiazole] | 0.2 |  | > 100 |  |  |  | 
CS(=O)(=O)c1ccc(-c2sc(CCCc3ccc(Br)cc3)nc2-c2ccc(F)cc2)cc1 [Example 21] | < 0.1 | > 10 |  | < 0.1 |  |  | 
CS(=O)(=O)c1ccc(-c2sc(C(F)(F)F)nc2-c2ccc(F)cc2)cc1 [Example 23, 4-(4-Fluorophenyl)-5-(4-methylsulfonylphenyl)-2-trifluoromethylthiazole] | < 0.1 | 0.7 | 1.1 | < 0.1 |  | 39.5 | 
CS(=O)(=O)c1ccc(-c2sc(-c3ccc(Br)s3)nc2-c2ccc(F)cc2)cc1 [Example 25, 2-(5'-Bromo-2'-thienyl)-4-(4-fluorophenyl)-5-(4-methylsulfonylphenyl)thiazole] | < 0.1 |  | 2.6 |  |  |  | 
NS(=O)(=O)c1ccc(-c2sc(-c3ccccc3Cl)nc2-c2ccc(F)cc2)cc1 [Example 32, 4-[4-(4-Fluorophenyl)-2-(2-chlorophenyl)-5-thiazolyl]benzensulfonamide] | < 0.1 |  | 0.7 |  |  |  | 
NS(=O)(=O)c1ccc(-c2sc(COc3cc(Cl)cc(Cl)c3)nc2-c2ccc(F)cc2)cc1 [Example 34, 4-[2-((3,5-Dichlorophenoxy)methyl)-4-(4-fluorophenyl)-5-thiazolyl]benezenesulfonamide] |  |  | < 0.1 |  |  |  | 
CS(=O)(=O)c1ccc(-c2sc(COc3cccc(Cl)c3)nc2-c2ccccc2F)cc1 [Example 36, 2-(3-Chlorophenoxy)methyl-4-(2-fluorophenyl)-5-[4-(methylsulfonyl)phenyl]thiazole] | < 0.1 |  | > 100 |  |  |  | 
CS(=O)(=O)c1ccc(-c2sc(COc3ccccc3Cl)nc2-c2ccc(F)cc2)cc1 [Example 38, 2-((2-Chlorophenoxy)methyl)-4-(4-fluorophenyl)-5-(4-methylsulfonylphenyl)thiazole] | < 0.1 |  | > 100 |  |  |  | 
CS(=O)(=O)c1ccc(-c2sc(-c3ccccc3Cl)nc2-c2ccc(Br)cc2)cc1 [Example 40, 4-(4-Bromophenyl)-2-(2-chlorophenyl)-5-[4-(methylsulfonyl)phenyl]thiazole] | < 0.1 |  | > 100 |  |  |  | 
COc1ccc(OCc2nc(-c3ccc(F)cc3)c(-c3ccc(S(C)(=O)=O)cc3)s2)cc1 [Example 41, 4-(4-Fluorophenyl)-2-[(4-methoxyphenoxy)methyl]-5-[4-(methylsulfonyl)phenyl]thiazole] | < 0.1 |  | > 100 |  |  | 4 | 
CS(=O)(=O)c1ccc(-c2sc(Nc3cc(Cl)cc(Cl)c3)nc2-c2ccc(F)cc2)cc1 [Example 52, 2-(3,5-Dichlorophenylamino)-4-(4-fluorophenyl)-5-(4-methylsulfonylphenyl)thiazole] |  | > 100 |  | 0.5 |  |  | 7
CS(=O)(=O)c1ccc(-c2nc(C(F)(F)F)sc2-c2ccc(F)cc2)cc1 [Example 56, 5-(4-fluorophenyl)-4-(4-methylsulfonylphenyl)-2-trifluoromethylthiazole] | < 0.1 | > 100 | > 100 | < 0.1 |  |  | 20
CS(=O)(=O)c1ccc(-c2sc(-c3c(F)c(F)c(F)c(F)c3F)nc2-c2ccc(F)cc2)cc1 [Example 57] | < 0.1 | 4.9 | > 100 | > 0.1 |  |  | 2

Reference: patent US5668161A, “Substituted thiazoles for the treatment of inflammation” (G.D. Searle & Co., priority 1996, dated 1997)
